One compound from PMC3718762, “Differential Disruption of EWS-FLI1 Binding by DNA-Binding Agents” (PLoS ONE, 2013) can be followed below.

For orientation: IC50 means the point on the concentration scale where inhibition reaches its midpoint.

Starred links: 1 amine or outer side, 2 acyl side, 3 side chain; linkers in the order of their positions; H or OH if unused. Positions of bridges follow the written chain, without caps; N, C: chain ends. Non-standard residues stand in square brackets, D forms with d. Residues, ends and D or L forms follow the SMILES beside them. Chains are numbered I, II in the order given. Actinocin(9to1) = Cc1c2oc3c(C)ccc(C(=O)[*:1])c3nc-2c(C(=O)[*:2])c(N)c1=O; NMeV = CN[C@H](C(=O)O)C(C)C; Sar = CNCC(=O)O

In one assay the test system is UbC promoter. Description: UbC-Renilla luciferase reporter (internal control) in A673 cells. Type of assay: cell-based. The following applies: Homo sapiens, 16 hours, read-out: IC50 for inhibition of UbC promoter activity. As for the experimental part: Ewing sarcoma A673 cells at 50% confluence in 100 mm dishes were transfected with both 5.8 µg of pGL.3b-NR0B1 and 0.2 µg of pGL.3b-Ubc-RL reporter plasmids as above. Eight hours post-transfection, cells were trypsinized and 600 ul (2×10^5) of cells were added to each well of 24 well plates. 5 µl of different concentration of compounds or DMSO control were added to each well. Each treatment was performed in triplicate. Cells were incubated for 16 hours, then cells were lysed in 100 µl of lysis buffer and 10 µl of cell lysate was used for the dual luciferase assay. Renilla luciferase activity was used as an internal control for normalization of nonspecific transcriptional inhibition or cytotoxic effects. Experiments were repeated three times. IC50 values were calculated using Prism (Graphpad).
To determine the effect of compounds on EWS-FLI1 activity in cells, we used a reporter assay comprised of the NR0B1 promoter, a prototypical EWS-FLI1-regulated gene, driving expression of firefly luciferase. Renilla luciferase driven by the Ubiquitin C promoter (UbC-RL) was used as an internal control. Confirming prior studies, the NR0B1 promoter was verified to be highly responsive to EWS-FLI1, whereas the UbC promoter activity was not subject to regulation by EWS-FLI1 (Figure S1).
(In general: A reporter such as luciferase makes a cellular process visible.)

Another assay deals with NR0B1 mRNA. As to the kind of experiment: Quantitative RT-PCR of endogenous NR0B1 mRNA in A673 cells. It is filed as cell-based. How it is done:
(§1) Duplicate wells of A673 cells were treated overnight with different concentration of actinomycin D. RNA was extracted with absolutely mRNA purification kit from Stratagene. 0.5 µg total RNA was mixed with 1 µl iScript Reverse Transcriptase, 10 µl of 2× RT-PCR reaction mix for probes from Bio-Rad, 1 µl of NR0B1, RPS26 and TP53 probes from Life Technologies and H2O up to 20 µl total volume. RT-PCR was performed in an iCycler iQ with 50°C for 10 minutes for one cycle; 95°C, 15 seconds, 60°C 40 seconds for 40 cycles. Each RNA sample was technically duplicated, and relative abundance was calculated by the delta Ct method.

The test system of assay [1] is RPS26 and TP53 transcripts. As to the kind of experiment: Quantitative RT-PCR of control transcripts in A673 cells. It is filed as cell-based. Particulars: actinomycin D treatment (Figure 2F). As for the experimental part: as §1
For the next assay, the system named is RPS26 and TP53 loci. As to the kind of experiment: ChIP-qPCR, control loci in A673 cells. It is filed as cell-based. The following applies: 5 nM, 4 hrs, anti-FLI1 ChIP. As for the experimental part:
ChIP-qPCR was performed as previously described. Briefly, cells were treated with compounds for 4 hrs, then crosslinked, lysed, and chromatin fragmented. After ChIP, quantitative PCR was used to quantify NR0B1, p53, and RPS26 loci, and fold enrichment was determined by the formula: Fold enrichment = 2χ(Input Ct-ChIP Ct)/2χ(Input Ct-IgG Ct).
We used chromatin immunoprecipitation coupled with quantitative PCR (ChIP-qPCR) to assess effects of actinomycin D on EWS-FLI1 binding to chromatin in cells. A673 cells were treated with either actinomycin D at 5 nM, or vehicle. After crosslinking, chromatin was sheared and EWS-FLI1-DNA complexes were immunoprecipitated using an anti-FLI1 antibody. We used primers flanking the EWS-FLI1-binding site in the promoter of the NR0B1 gene to quantify binding of EWS-FLI1. We used RPS26 and TP53 as control loci since neither are bound by EWS-FLI [15] and we have shown that RPS26 and TP53 transcript levels were unaffected by actinomycin D treatment (Figure 2F). Without actinomycin D treatment, binding of EWS-FLI1 to the NR0B1 promoter was enriched 31-fold by comparison to IgG controls (Figure 4A, DMSO). Treatment of cells with actinomycin D reduced binding of EWS-FLI1 to the NR0B1 promoter to 4-fold (p = 0.0018; Figure 4A).

The next assay has as its system A673. As to the kind of experiment: MTT cell viability assay. Type of assay: cell-based. The following applies: Homo sapiens, 44 hours. How it is done:
(§2) Cells were seeded at a density of 1.5×10^5/ml with 100 µl/well in 96 well plates and treated with actinomycin D at 158 nM, 50 nM, 15.8 nM, 5 nM, 1.58 nM, 0.5 nM and 0 (6 wells/treatment) for 44 hours. CellTiter 96 was used to assess cell viability after a 2 hr incubation at 37°C. IC50 values were calculated using Prism.
(§3) To determine if cells driven by EWS-FLI1 are more sensitive to actinomycin D, we assessed cell growth and viability using a MTT assay after 44 hrs exposure to actinomycin D. Although all cell lines were affected by actinomycin D, the Ewing sarcoma cell lines were as a group more sensitive by comparison to other cell lines tested (Figure 5).
On the technique in general: Tetrazolium assays rely on reduction of a dye to a coloured formazan, in cell work by metabolically active cells.

For the next assay, the system named is Cado-es. As to the kind of experiment: MTT cell viability assay. It is filed as cell-based. Particulars: 44 hours. As for the experimental part:
as §2, §3

In the next assay the test system is EW-8. Description: MTT cell viability assay. The following applies: EW8, 44 hours. It is filed as cell-based. As for the experimental part:
as §2, §3

Another assay deals with Hela. Description: MTT cell viability assay. Type of assay: cell-based. Particulars: Homo sapiens, 44 hours. How it is done:
as §2, §3

In another assay the test system is Ovcar-3. As to the kind of experiment: MTT cell viability assay. It is filed as cell-based. The following applies: Homo sapiens, 44 hours. As for the experimental part:
as §2, §3

A further assay concerns PC-3. Description: MTT cell viability assay. It is filed as cell-based. The following applies: Homo sapiens, 44 hours. As for the experimental part:
as §2, §3

In the next assay the test system is Skov-3. Description: MTT cell viability assay. Type of assay: cell-based. Particulars: Homo sapiens, SK-OV-3, 44 hours. How it is done: as §2, §3
For another assay, the system named is TC-32. As to the kind of experiment: MTT cell viability assay. Type of assay: cell-based. The following applies: Homo sapiens, 44 hours. How it is done:
as §2, §3

The next assay deals with TC-71. As to the kind of experiment: MTT cell viability assay. It is filed as cell-based. The following applies: 44 hours. How it is done:
as §2, §3

The subject of the next assay is EWS-FLI1. As to the kind of experiment: AlphaScreen proximity assay, binding of recombinant EWS-FLI1 to cognate DNA oligo. (In general: In Alpha technology, singlet oxygen from a donor bead excites a nearby acceptor bead.)

Turning to `Cc1c2oc3c(C)ccc(C(=O)N[C@@H]4C(=O)N[C@H](C(C)C)C(=O)N5CCC[C@H]5C(=O)N(C)CC(=O)N(C)[C@@H](C(C)C)C(=O)O[C@@H]4C)c3nc-2c(C(=O)N[C@@H]2C(=O)N[C@H](C(C)C)C(=O)N3CCC[C@H]3C(=O)N(C)CC(=O)N(C)[C@@H](C(C)C)C(=O)O[C@@H]2C)c(N)c1=O` [Actinomycin D] (I: T[dV]P[Sar][NMeV] / II: T[dV]P[Sar][NMeV]; ester I:1-I:C, II:1-II:C; linker I:N-II:N via Actinocin(9to1)), the IC50 was 14 nM in the assay on UbC promoter; 2.5 nM in the assay with A673; 7 nM in the assay on Cado-es; 3.5 nM in the assay with EW-8; above 20 nM in the assay on Hela; above 20 nM in the assay on Ovcar-3. Besides, the IC50 in the assay on PC-3 is above 20 nM; in the assay on Skov-3 it was above 20 nM; with TC-32 it was 1 nM; in the assay on TC-71, 3 nM; at EWS-FLI1 (read-out: IC50 EWS-FLI1, disruption of recombinant EWS-FLI1 binding to DNA), 45 nM. Besides, the “Expression of NR0B1 and control transcripts” value with NR0B1 mRNA (A673 cells, overnight, 50 nM) is “similarly attenuated”. Moreover, the “Expression of endogenous NR0B1 mRNA” value in the assay with NR0B1 mRNA (A673 cells, overnight, 5 -10 nM, versus control transcripts p53 and RPS26) is “preferentially attenuated”. The “Window between preferential effect on EWS-FLI1 and global inhibition of transcription” value with NR0B1 mRNA (in cells) is listed as below 10 fold. In addition, the “RPS26 and TP53 transcript levels” value in assay [1] was “unaffected”. Besides, the “Effect on RPS26 or TP53 loci in ChIP” value in the assay on RPS26 and TP53 loci was “did not affect”. In addition, in the assay with EWS-FLI1 (EWS-FLI1 versus p53), the “Disruption of EWS-FLI1 binding compared with p53 binding in the parallel assays” value is given as “greatest differential effect”.
